Patent publication US10052306B2 (LUC THERAPEUTICS, INC., priority 2013, dated 2018)

Experiments:
[1] = molecular target: NR1/NR2B (Homo sapiens (Human), UniProt Q05586+Q13224); assay: Cell assay: FDSS Ca2+ influx inhibition in HEK293 cells expressing NR1/NR2B; conditions: Binned Activity, HEK293 cells expressing NR1/NR2B, Ca2+ influx; binned NR2B NAM IC50;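 note: Fluo-8 Ca2+ signal read on Hamamatsu FDSS 6000 after glutamate, glycine and Ca2+ challenge following 10 min compound preincubation, end/baseline fluorescence ratio compared with MK801 control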
Chain of NR1/NR2B (Homo sapiens (Human), UniProt Q05586+Q13224) (Q13224 27-1484, other chains not shown): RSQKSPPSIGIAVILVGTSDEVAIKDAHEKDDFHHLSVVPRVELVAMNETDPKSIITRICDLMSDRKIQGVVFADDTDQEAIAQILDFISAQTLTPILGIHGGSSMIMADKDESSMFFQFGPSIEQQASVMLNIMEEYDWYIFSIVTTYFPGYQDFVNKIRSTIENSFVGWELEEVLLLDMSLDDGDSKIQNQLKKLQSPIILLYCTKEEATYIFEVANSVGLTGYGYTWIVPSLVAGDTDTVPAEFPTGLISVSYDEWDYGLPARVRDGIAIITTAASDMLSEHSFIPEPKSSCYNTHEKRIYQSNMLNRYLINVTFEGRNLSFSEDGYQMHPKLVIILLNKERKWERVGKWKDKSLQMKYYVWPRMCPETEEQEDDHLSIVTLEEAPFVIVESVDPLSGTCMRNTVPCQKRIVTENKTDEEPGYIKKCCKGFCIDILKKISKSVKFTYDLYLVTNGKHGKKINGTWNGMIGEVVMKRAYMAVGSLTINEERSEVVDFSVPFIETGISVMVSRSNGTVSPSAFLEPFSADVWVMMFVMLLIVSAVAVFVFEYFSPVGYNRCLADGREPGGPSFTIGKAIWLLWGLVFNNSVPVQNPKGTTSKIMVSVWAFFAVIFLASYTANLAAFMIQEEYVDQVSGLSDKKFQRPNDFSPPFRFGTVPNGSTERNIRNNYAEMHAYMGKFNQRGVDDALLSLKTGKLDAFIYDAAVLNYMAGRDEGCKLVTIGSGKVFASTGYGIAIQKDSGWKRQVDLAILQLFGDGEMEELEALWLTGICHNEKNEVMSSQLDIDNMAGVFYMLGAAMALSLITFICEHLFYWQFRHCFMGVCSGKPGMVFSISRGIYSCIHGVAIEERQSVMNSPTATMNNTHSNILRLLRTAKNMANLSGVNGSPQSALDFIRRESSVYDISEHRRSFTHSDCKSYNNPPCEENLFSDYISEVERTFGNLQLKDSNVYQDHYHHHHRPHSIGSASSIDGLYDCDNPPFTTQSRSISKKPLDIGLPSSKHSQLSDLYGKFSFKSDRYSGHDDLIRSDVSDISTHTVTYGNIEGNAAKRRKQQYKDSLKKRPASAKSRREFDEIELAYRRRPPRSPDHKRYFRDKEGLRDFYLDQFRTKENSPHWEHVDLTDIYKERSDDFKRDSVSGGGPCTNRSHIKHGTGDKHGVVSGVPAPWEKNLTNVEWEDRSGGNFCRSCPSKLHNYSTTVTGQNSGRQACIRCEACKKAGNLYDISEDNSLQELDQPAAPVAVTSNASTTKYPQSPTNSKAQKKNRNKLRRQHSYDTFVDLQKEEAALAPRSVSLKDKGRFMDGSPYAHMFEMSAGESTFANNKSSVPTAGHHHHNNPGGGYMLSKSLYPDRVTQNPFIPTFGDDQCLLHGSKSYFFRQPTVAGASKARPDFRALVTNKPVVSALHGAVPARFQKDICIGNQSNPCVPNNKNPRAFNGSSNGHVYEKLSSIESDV
Experimental: (§1) Cell Culture and plating: HEK293 cells expressing NR1/NR2B (Chantest, Cleveland, Ohio) were grown to 70-80% confluency as an adherent monolayer in standard tissue culture flasks at 37° C., 5% CO2 per supplier's instructions. NR2B expression was induced by incubation with 0.3-0.4 μg/ml tetracycline in the presence of 4 mM ARL-15896 for 18-24 hours under the same growth conditions, then transferred to 30° C. for another 3-5 hours.
(§2) After induction, cell culture medium was removed and cells were rinsed once with Ca^2+ and Mg^2+-free Dulbecco's phosphate buffered saline. Cells were then removed from the flask using TrypLE™ Express (Life Technologies) according to the manufacturer's instructions and collected to 50 ml centrifuge tubes. Following two washes in Ca^2+/Mg^2+-free HBSS with 20 mM HEPES (HHnoCa), cells were counted and viability assessed using trypan blue. To load cells with Ca^2+-sensitive dye, they were resuspended in fluo-8 plus Component B (AAT Bioquest Products) diluted in HHnoCa and incubated 15 minutes at 37° C., followed by 30 minutes at room temp (in dark). Cells were then washed and resuspended in HHnoCa to remove extracellular dye and plated in 384-well plates (Falcon, uncoated) at 20,000-30,000 cells/well in a final volume of 25 μl/well.
(§3) FDSS Assay: To each well of the plate, 10 μL test compound, control (MK801) or HHnoCa buffer was added to a final concentration of 10 μM with a final concentration of DMSO of 0.1%. Following 10 minutes pre-incubation in the dark, plates are loaded onto the Hamamatsu FDSS 6000. After collecting baseline fluorescence images, 3 μM glutamate, 3 glycine, and 1 mM Ca^2+ in HHnoCa buffer is added to each well, and Ca^2+ is recorded for 3 minutes. Data were processed by computing ratio of fluorescence at the end of data collection to baseline fluorescence to assess degree of Ca′ influx inhibition relative to that observed in MK801.

[2] = molecular target: NR1/NR2B (Homo sapiens (Human), UniProt Q13224); assay: as above; conditions: read-out: NR2B NAM IC50; HEK293 cells expressing NR1/NR2B, Ca2+ influx
Chain of NR1/NR2B (Homo sapiens (Human), UniProt Q13224) (Q13224 27-1484, other chains not shown): as above
Experimental: as §1, §2, §3

Compound	IC50 [1]	IC50 [2]
O=C(CN1C[C@@H]2C[C@@](O)(Cc3ccc(F)cc3)C[C@@H]2C1)c1ccc(O)cc1 [Example 134, 2-((3aR,5r,6aS)-5-(4-fluorobenzyl)-5-hydroxyhexahydrocyclo-penta[c]pyrrol-2(1H)-yl)-1-(4-hydroxyphenyl)ethanone]	< 0.1 µM	0.0432 µM
O=C(CN1C[C@@H]2C[C@@](O)(Cc3ccc(F)cc3F)C[C@@H]2C1)c1ccc(O)cn1 [Example 230, 2-((3aR,5r,6aS)-5-(2,4-difluorobenzyl)-5-hydroxyhexahydrocyclo-penta[c]pyrrol-2(1H)-yl)-1-(5-hydroxypyridin-2-yl)ethanone]	1 to 10 µM	2.16 µM
O=C(CCN1C[C@@H]2C[C@@](O)(c3ccccc3)C[C@@H]2C1)c1ccc(O)cc1 [Example 97, 3-(5-hydroxy-5-phenylhexahydrocyclo-penta[c]pyrrol-2(1H)-yl)-1-(4-hydroxyphenyl)propan-1-one]	> 10 µM	10 µM
O=C(CCN1C[C@@H]2C[C@@](O)(Cc3ccccc3)C[C@@H]2C1)c1ccc(O)cc1 [Example 133, 3-((3aR,5r,6S)-5-benzyl-5-hydroxyhexahydrocyclo-penta[c]pyrrol-2(1H)-yl)-1-(4-hydroxyphenyl)propan-1-one]	1 to 10 µM	7.05 µM
O=C(CN1C[C@@H]2C[C@@](O)(c3cccnc3F)C[C@@H]2C1)c1ccc(O)cn1 [Example 244, 2-((3aR,6aS)-5-(2-fluoropyridin-3-yl)-5-hydroxyhexahydrocyclo-penta[c]pyrrol-2(1H)-yl)-1-(5-hydroxypyridin-2-yl)ethanone]	> 10 µM	10 µM
O=C1CCc2cc(C(=O)CN3C[C@@H]4C[C@@](O)(Cc5ccccc5)C[C@@H]4C3)ccc2N1 [Example 148, 6-(2-((3aR,5r,6aS)-5-benzyl-5-hydroxyhexahydrocyclo-penta[c]pyrrol-2(1H)-yl)acetyl)-3,4-dihydroquinolin-2(1H)-one]	0.1 to 1 µM	0.137 µM
Cc1cc(F)ccc1C[C@]1(O)C[C@H]2CN(CC(=O)c3ccc(O)cn3)C[C@H]2C1 [Example 242, 2-((3aR,5r,6aS)-5-(4-fluoro-2-methylbenzyl)-5-hydroxyhexahydrocyclo-penta[c]pyrrol-2(1H)-yl)-1-(5-hydroxypyridin-2-yl)ethanone]	1 to 10 µM	2.71 µM
O=C(CN1C[C@@H]2C[C@@](O)(Cc3ccccc3)C[C@@H]2C1)c1ccc(Cl)nc1 [Example 155, 2-((3aR,5r,6aS)-5-benzyl-5-hydroxyhexahydrocyclo-penta[c]pyrrol-2(1H)-yl)-1-(6-chloropyridin-3-yl)ethanone]	> 10 µM	10 µM
O=C(CN1C[C@@H]2C[C@@](O)(Cc3ccccc3F)C[C@@H]2C1)c1ccc(O)cc1 [Example 225, 2-((3aR,5r,6aS)-5-(2-fluorobenzyl)-5-hydroxyhexahydrocyclo-penta[c]pyrrol-2(1H)-yl)-1-(4-hydroxyphenyl)ethanone]	< 0.1 µM	0.0273 µM
CC(C)(C)c1ccc([C@]2(O)C[C@H]3CN(C(=O)Nc4cccc(C#N)c4)C[C@H]3C2)cc1 [Example 52]	> 10 µM	10 µM
O=C(Nc1ccccc1C(F)(F)F)N1C[C@@H]2C[C@@](O)(Cc3ccccc3)C[C@@H]2C1 [Example 127, (3aR,5r,6aS)-5-benzyl-5-hydroxy-N-(2-(trifluoromethyl)phenyl) hexahydrocyclopenta[c] pyrrole-2(1H)-carboxamide]	> 10 µM	10 µM
O=C(Nc1ccc(F)cc1F)N1C[C@@H]2C[C@@](O)(c3ccccc3)C[C@@H]2C1 [Example 19, N-(2,4-difluorophenyl)-5-hydroxy-5-phenyl-octahydrocyclopenta[c] pyrrole-2-carboxamide]	> 10 µM	10 µM
